The values below come from patent publication US12351571B2, “Substituted quinoxaline compounds as inhibitors of FGFR tyrosine kinases” (ARRAY BIOPHARMA INC., priority 2018, dated 2025).

For one test, the target named is FGFR3 (Homo sapiens (Human), UniProt P22607). The experiment in a line: LC/MS FGFR3 kobs assay (covalent modification). It is filed as biochemical. The note with it: 500 nM FGFR3, 3 μM compound. The method, then: The LC/MS FGFR1 and FGFR3 kobs assays were conducted as follows. 500 nM FGFR1 (Array BioPharma construct p1702; SEQ ID NO: 1, amino acids 458-765) or FGFR3 (Array BioPharma construct p1700; SEQ ID NO: 5, amino acids 449-759) were incubated with 3 μM compound in 25 mM HEPES (4-(2-hydroxyethyl)-1-piperazineethanesulfonic acid), pH 7.4, 5 mM MgCl2, 150 mM NaCl, 0.5 mM TCEP (tris(2-carboxyethyl) phosphine), and 2% DMSO in a total volume of 20 μL. At each time point, the reaction was quenched with 20 μL of 0.4% formic acid. The extent of protein modification by each compound was determined by LC/MS on an Agilent Technologies 6520 Q-TOF LC/MS. Protein signals were then automatically deconvoluted using Agilent Masshunter software. Deconvoluted mass signals were exported to Tibco Spotfire data analysis program for further processing and normalization.
Data analysis included five steps. First, the signals for the “DMSO Controls” were analyzed to determine the percent of signal associated with unmodified FGFR1 or FGFR3 at each time point. Next, the percent of the signal associated with the covalent modification was determined. Third, the average nonmodified “DMSO Control” signal was used to normalize the modified protein signals at each time point. The percent of unmodified protein was fit to an exponential decay model where A0 is the Percent Unmodified at the start of the reaction, and kobs is the observed rate constant over the time period.

In another test the target is dephosphorylated FGFR1 (Homo sapiens (Human), UniProt P11362). The experiment in a line: FGFR Enzyme Binding Assay (HTRF tracer displacement), FGFR1. The note with it: 5 nM dephosphorylated FGFR1, 60 minute incubation at 22° C.; read-out: FGFR1 Enz Binding IC50. The method, then:
(§1) The potency of compounds inhibiting human isoforms of FGFR kinase was determined using Life Technologies' Homogeneous Time Resolved Fluorescence (HTRF)-based binding assay technology. An incubation was conducted with either 5 nM dephosphorylated FGFR1 (Array Biopharma, p1702; SEQ ID NO: 1, amino acids 458 to 765, dephosphorylated by co-expression with PTP1b (protein tyrosine phosphatase 1B)), 5 nM dephosphorylated FGFR2 (Life Technologies, Cat. No. PV4106 that had been dephosphorylated with Lambda protein phosphatase (New England Biolabs, cat #P0753)) or 5 nM phosphorylated FGFR3 (Array Biopharma, p1836; SEQ ID NO: 5, amino acids 449 to 759), 50 nM Kinase Tracer 236 (Life Technologies Cat. No. PR9078A), 2 nM Biotin-anti-6HIS (Life Technologies Cat. No. PV6090) and 2 nM Europium-Streptavidin (Life Technologies Cat. No. PV6025) along with test compound in a buffer consisting of 50 mM HEPES ((4-(2-hydroxyethyl)-1-piperazineethanesulfonic acid, pH 7.5), 5 mM MgCl2, 0.005% Triton X-100, 1 mM DTT, 1 mM NaVO4 and 2% DMSO in a final volume of 12 μL Compounds were typically prepared as a 3-fold or 4-fold serial dilution in DMSO and added to the assay to give the appropriate final concentration. After a 60 minute incubation at 22° C., the extent of tracer displacement was determined using a PerkinElmer EnVision multimode plate reader via HTRF dual wavelength detection, and the percent of control (POC) was calculated using a ratiometric emission factor. One hundred POC was determined using no test compound, and 0 POC was determined in the presence of 1 μM of an appropriate control inhibitor. A 4-parameter logistic curve was fit to the POC values as a function of the concentration of compound, and the IC50 value was the point where the best-fit curve crossed 50 POC.
(In general: TR-FRET usually uses a lanthanide donor and a delayed reading to cut background.)

For the next test, the target named is phosphorylated FGFR3 (Homo sapiens (Human), UniProt P22607). The experiment in a line: FGFR Enzyme Binding Assay (HTRF tracer displacement), FGFR3. Particulars: 5 nM phosphorylated FGFR3, 60 minute incubation at 22° C.; read-out: FGFR3 Enz Binding IC50. The method, then:
as §1

Test [1] addresses recombinant human FGFR1 catalytic domain (Homo sapiens (Human), UniProt P11362). Briefly: FGFR Enzyme Activity Assay (LanthaScreen TR-FRET), FGFR1. It is filed as biochemical. The note with it: 15 μM ATP, 20 minutes incubation; read-out: FGFR1 Enz FRET IC50. The method, then: FGFR1 kinase activity was measured by the Invitrogen LanthaScreen™ Assay technology which directly measures the amount of substrate phosphorylation by Time-resolved fluorescence energy transfer (TR-FRET) using a flourescently-labeled peptide and Europium-labeled antibody. Briefly, 200 pM His-tagged recombinant human FGFR1 catalytic domain (amino acids 308-731) (Life Technologies Cat. No. PR4660A) was incubated with 100 nM Alexa Fluor® 647-Poly-GT Peptide Substrate (Life Technologies Cat. No. PV5836) and 15 μM ATP along with test compound in a buffer consisting of 250 mM HEPES, 25 mM MgCl2, 0.05% TritonX-100, pH 7.5, and 2% DMSO. Compounds were typically prepared in a threefold serial dilution in DMSO and added to the assay to give the appropriate final concentration. After a 20 minutes incubation at 22° C., an equal volume of 2 nM LanthaScreen® Eu-PY20 Antibody (Life Technologies Cat. No. PV5691) and 10 mM EDTA was added to quench the kinase reaction and start the detection reaction. After an additional 60 minute incubation at 22° C., the reaction was measured using a PerkinElmer EnVision multimode plate reader via TR-FRET dual wavelength detection, and the percent of control (POC) calculated using a ratiometric emission factor. 100 POC was determined using no test compounds and 0 POC was determined using no enzyme. The POC values were fit to a 4-parameter logistic curve as a function of the concentration of the compound, and the IC50 value is the point where the curve crosses 50 POC.

Molecules are shown by their SMILES.

FGFR3, sequence (P22607 449-759): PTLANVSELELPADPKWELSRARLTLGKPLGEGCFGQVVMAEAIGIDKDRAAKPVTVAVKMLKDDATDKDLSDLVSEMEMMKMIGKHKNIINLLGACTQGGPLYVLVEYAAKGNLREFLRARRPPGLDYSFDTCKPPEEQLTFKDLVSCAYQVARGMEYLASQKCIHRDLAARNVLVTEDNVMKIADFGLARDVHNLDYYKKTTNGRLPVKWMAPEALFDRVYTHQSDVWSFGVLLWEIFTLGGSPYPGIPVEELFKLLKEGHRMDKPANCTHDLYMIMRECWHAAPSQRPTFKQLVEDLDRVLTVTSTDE
phosphorylated FGFR3, sequence (P22607 449-759): as above
dephosphorylated FGFR1, sequence (P11362 458-765): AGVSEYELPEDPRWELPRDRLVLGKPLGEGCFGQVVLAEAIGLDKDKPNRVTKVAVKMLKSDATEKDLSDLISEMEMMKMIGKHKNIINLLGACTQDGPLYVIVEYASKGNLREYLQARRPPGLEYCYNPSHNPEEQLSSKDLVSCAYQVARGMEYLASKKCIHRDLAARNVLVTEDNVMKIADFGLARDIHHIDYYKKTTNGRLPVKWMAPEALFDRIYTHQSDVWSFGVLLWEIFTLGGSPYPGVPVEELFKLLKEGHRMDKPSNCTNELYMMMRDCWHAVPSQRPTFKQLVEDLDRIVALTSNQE
recombinant human FGFR1 catalytic domain, sequence (P11362 other isoform, or with tags, fused parts or gaps): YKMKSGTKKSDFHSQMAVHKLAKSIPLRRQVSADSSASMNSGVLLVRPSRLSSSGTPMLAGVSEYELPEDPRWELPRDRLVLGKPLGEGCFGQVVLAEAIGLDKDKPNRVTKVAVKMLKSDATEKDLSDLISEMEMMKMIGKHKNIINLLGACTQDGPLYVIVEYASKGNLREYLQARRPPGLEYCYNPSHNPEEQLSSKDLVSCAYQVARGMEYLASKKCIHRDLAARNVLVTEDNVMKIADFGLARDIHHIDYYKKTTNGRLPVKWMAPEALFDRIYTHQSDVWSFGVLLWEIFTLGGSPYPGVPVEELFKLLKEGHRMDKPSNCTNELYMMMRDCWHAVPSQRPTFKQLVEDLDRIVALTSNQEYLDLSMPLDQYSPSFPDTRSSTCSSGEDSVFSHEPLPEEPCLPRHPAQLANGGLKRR

As for `C=CC(=O)N1CC(C(=O)N2CCC(n3cc(-c4cnc5ccc(Nc6cc(OC)cc(OC)c6)cc5n4)cn3)CC2)C1` [Example 1, 1-(3-(4-(4-(7-((3,5-dimethoxyphenyl)amino)quinoxalin-2-yl)-1H-pyrazol-1-yl)piperidine-1-carbonyl)azetidin-1-yl)prop-2-en-1-one], the “FGFR3 Enz kobs” value at FGFR3 is 0.00945 min⁻¹. The IC50 was found to be 22 nM on dephosphorylated FGFR1, 2 nM on phosphorylated FGFR3 and 54 nM in test [1].

Take `C=CC(=O)N1CC[C@@H](C(=O)N2CCC(n3cc(-c4cnc5ccc(Nc6cc(OC)cc(OC)c6)cc5n4)cn3)CC2)C1` [Example 2, (R)-1-(3-(4-(4-(7-((3,5-dimethoxyphenyl)amino)-quinoxalin-2-yl)-1H-pyrazol-1-yl)piperidine-1-carbonyl)pyrrolidin-1-yl)-prop-2-en-1-one]: the “FGFR3 Enz kobs” value at FGFR3 is 0.00302 min⁻¹. Besides, the values for the concentration for half-maximal inhibition (IC50) (at dephosphorylated FGFR1; on phosphorylated FGFR3; in test [1]) were 24 nM, 4 nM and 49 nM, respectively.

On to `C=CC(=O)N1CCC(C(=O)N2CCC(n3cc(-c4cnc5ccc(Nc6cc(OC)cc(OC)c6)cc5n4)cn3)CC2)CC1` [Example 3, 1-(4-(4-(4-(7-((3,5-dimethoxyphenyl)amino)-quinoxalin-2-yl)-1H-pyrazol-1-yl)piperidine-1-carbonyl)piperidin-1-yl)prop-2-en-1-one], for which, at FGFR3, the “FGFR3 Enz kobs” value was 0.00166 min⁻¹. In addition, the IC50 amounted to 26 nM on dephosphorylated FGFR1, 5 nM on phosphorylated FGFR3 and 51 nM in test [1].

With `C=CC(=O)N1CC(F)(C(=O)N2CCC(n3cc(-c4cnc5ccc(Nc6cc(OC)cc(OC)c6)cc5n4)cn3)CC2)C1` [Example 4, 1-(3-(4-(4-(7-((3,5-dimethoxyphenyl)amino)-quinoxalin-2-yl)-1H-pyrazol-1-yl)piperidine-1-carbonyl)-3-fluoro-azetidin-1-yl)prop-2-en-1-one], the “FGFR3 Enz kobs” value at FGFR3 was determined as 0.03901 min⁻¹. The figures for the IC50 (on dephosphorylated FGFR1; at phosphorylated FGFR3; in test [1]) were 33 nM, 3 nM and 89 nM, respectively.

As to `C=CC(=O)N1CC(C(=O)N2CCN(c3ccc(-c4cnc5ccc(Nc6cc(OC)cc(OC)c6)cc5n4)cn3)CC2)C1` [Example 5, 1-(3-(4-(5-(7-((3,5-dimethoxyphenyl)amino)-quinoxalin-2-yl)pyridin-2-yl)piperazine-1-carbonyl)azetidin-1-yl)-prop-2-en-1-one], the “FGFR3 Enz kobs” value on FGFR3 was 0.01486 min⁻¹. The IC50 amounted to 623 nM at dephosphorylated FGFR1, 59 nM on phosphorylated FGFR3 and 448 nM in test [1].

As for `COc1cc(Nc2ccc3ncc(-c4ccc(N5CCN(C(=O)C6CN(C(=O)/C=C/CN(C)C)C6)CC5)nc4)nc3c2)cc(OC)c1` [Example 6, (E)-1-(3-(4-(5-(7-((3,5-dimethoxyphenyl)amino)-quinoxalin-2-yl)pyridin-2-yl)piperazine-1-carbonyl)azetidin-1-yl)-4-(dimethylamino)but-2-en-1-one], the “FGFR3 Enz kobs” value on FGFR3 worked out at 0.04816 min⁻¹. For the same molecule, the IC50 was 132 nM on dephosphorylated FGFR1, 9 nM at phosphorylated FGFR3 and 216 nM in test [1].

`COc1cc(Nc2ccc3ncc(-c4ccc(N5CCN(C(=O)C6(F)CN(C(=O)/C=C/CN(C)C)C6)CC5)nc4)nc3c2)cc(OC)c1` [Example 7, (E)-1-(3-(4-(5-(7-((3,5-dimethoxyphenyl)amino)-quinoxalin-2-yl)pyridin-2-yl)piperazine-1-carbonyl)-3-fluoroazetidin-1-yl)-4-(dimethylamino)but-2-en-1-one]: the “FGFR3 Enz kobs” value on FGFR3 was 0.1309 min⁻¹. The figures for the IC50 (on dephosphorylated FGFR1; on phosphorylated FGFR3; in test [1]) were 342 nM, 11 nM and 364 nM, respectively.

On to `C=CC(=O)N1CC(F)(C(=O)N2CCN(c3ccc(-c4cnc5ccc(Nc6cc(OC)cc(OC)c6)cc5n4)cn3)CC2)C1` [Example 8, 1-(3-(4-(5-(7-((3,5-dimethoxyphenyl)amino)-quinoxalin-2-yl)pyridin-2-yl)piperazine-1-carbonyl)-3-fluoroazetidin-1-yl)-prop-2-en-1-one], for which the “FGFR3 Enz kobs” value on FGFR3 is 0.06319 min⁻¹. Also, the IC50 at dephosphorylated FGFR1 came out at 558 nM; at phosphorylated FGFR3 it was 30 nM; in test [1] it was 831 nM.

In the case of `COc1cc(Nc2ccc3ncc(-c4cnn(C5CCN(C(=O)C6CN(C(=O)/C=C/CN(C)C)C6)CC5)c4)nc3c2)cc(OC)c1` [Example 9, (E)-1-(3-(4-(4-(7-((3,5-dimethoxyphenyl)amino)-quinoxalin-2-yl)-1H-pyrazol-1-yl)piperidine-1-carbonyl)azetidin-1-yl)-4-(dimethylamino)but-2-en-1-one], the “FGFR3 Enz kobs” value at FGFR3 amounted to 0.02139 min⁻¹. The IC50 was 22 nM on dephosphorylated FGFR1, 2 nM on phosphorylated FGFR3 and 29 nM in test [1].

Take `COc1cc(Nc2ccc3ncc(-c4cnn(C5CCN(C(=O)C6(F)CN(C(=O)/C=C/CN(C)C)C6)CC5)c4)nc3c2)cc(OC)c1` [Example 10, (E)-1-(3-(4-(4-(7-((3,5-dimethoxyphenyl)amino)-quinoxalin-2-yl)-1H-pyrazol-1-yl)piperidine-1-carbonyl)-3-fluoro-azetidin-1-yl)-4-(dimethylamino)but-2-en-1-one]: at FGFR3, the “FGFR3 Enz kobs” value was determined as 0.09291 min⁻¹. For the same molecule, the IC50 at dephosphorylated FGFR1 was found to be 28 nM; on phosphorylated FGFR3 it was 3 nM; in test [1], 35 nM.

With `COc1cc(Nc2ccc3ncc(-c4cnn(C5CCN(C(=O)C6(C#N)CN(C(=O)/C=C/CN(C)C)C6)CC5)c4)nc3c2)cc(OC)c1` [Example 11, (E)-3-(4-(4-(7-((3,5-dimethoxyphenyl)amino)-quinoxalin-2-yl)-1H-pyrazol-1-yl)piperidine-1-carbonyl)-1-(4-(dimethyl-amino)but-2-enoyl)-azetidine-3-carbonitrile], the “FGFR3 Enz kobs” value at FGFR3 came to 0.1473 min⁻¹. Further, the IC50 on dephosphorylated FGFR1 was determined as 44 nM; on phosphorylated FGFR3, 3 nM; in test [1], 44 nM.

Take `C=CC(=O)N1CC(C#N)(C(=O)N2CCC(n3cc(-c4cnc5ccc(Nc6cc(OC)cc(OC)c6)cc5n4)cn3)CC2)C1` [Example 12, 1-acryloyl-3-(4-(4-(7-((3,5-dimethoxyphenyl)-amino)quinoxalin-2-yl)-1H-pyrazol-1-yl)-piperidine-1-carbonyl)-azetidine-3-carbonitrile]: the “FGFR3 Enz kobs” value at FGFR3 was 0.07246 min⁻¹. Further, the IC50 on dephosphorylated FGFR1 came out at 48 nM; at phosphorylated FGFR3, 3 nM; in test [1] it was 89 nM.

Usually IC50 stands for the point on the concentration scale where inhibition reaches its midpoint.
